How the values were obtained:
[1] = target: Nitric oxide synthase (neuronal, human recombinant) nNOS (Homo sapiens (Human), UniProt P29475); experiment: Human nNOS enzyme assay ([3H]-L-arginine to L-citrulline conversion); type: biochemical
Description: nNOS (Human), eNOS (Human) and iNOS (Human) Enzyme Assay
Primary stock solutions of test compounds at a concentration of 6 mM were prepared from the 2 to 5 mg powder. The primary stock solutions of each test compound were prepared freshly in distilled water on the day of study to obtain a final concentration of 6 mM. For determination of IC50 values, 12 test compound concentrations were prepared as 3-fold serial dilutions. Concentration range of test compound utilized for nNOS were 0.001 to 300 μM and for eNOS were 0.003 to 1000 μM. The vehicle of the test compound or inhibitor was used as blank control. For non-specific activity, 100 μM L-NMMA was used. Runs using the IC50 concentration of L-NAME were done in parallel as controls.
All incubations are performed in duplicate
The reaction mixture was prepared on ice by adding the following components with a micropipette to a polypropylene microcentrifuge tube: • 10 μL of test compound, inhibitor or control (vehicle or L-NMMA) solution; • 25 μL of Reaction Buffer {25 mM Tris-HCl, 0.6 μM BH4, 0.2 μM FMN, 0.2 μM FAD}; • 5 μL of 10 mM NADPH solution {1 mM} (freshly prepared in 10 mM Tris-HCl (pH 7.4); • 5 μL of 6 mM CaCl2 {600 W}; • 5 μL of 1 mM Calmodulin {100 W}; and • 5 μL of 0.02 μg/μL nNOS or 0.12 μg/μL eNOS.
The above reaction mixture was pre-incubated at room temperature for 15 mins.
The reaction was started by the addition of the substrate (in 5 μL containing 1 μCi of [^3H]-L-Arginine+2.5 μM of unlabeled L-Arginine) to the reaction mixture. Total reaction volume is 60 μL.
The reaction was mixed using a vortex mixer and incubate the above reaction mixture at 37° C. in an incubator for 30 minutes.
To stop the reaction, 400 μL of ice-cold Stop Buffer was added at the end of the incubation period.
The reaction was then mixed using a vortex mixer, and the reaction samples were transferred to spin cups, which were centrifuged using a microcentrifuge, at 13,000 rpm for 30 sec. at room temperature.
The spin cups were removed from the holder, 450 μL of eluate (containing the unbound L-citrulline) were transferred to scintillation vials. 3 mL of scintillation fluid were added and the radioactivity was quantified in a liquid scintillation counter.
Data was analyzed using a Sigmoidal dose-response (variable slope) curve to determine the IC50 value of the test compound. Y=Bottom+(Top−Bottom)/(1+10^((Log IC50−X)*Hill Slope))

[2] = tested on: L5/L6 spinal nerve ligation model of neuropathic pain (Chung model); experiment: Chung L5/L6 spinal nerve ligation model of neuropathic pain; type: in vivo, rat; settings: rats, L5/L6 SNL
Description: (§1) The L5/L6 spinal nerve was surgically ligated and animals allowed to recover for a period of 7-10 days. During this period animals develop neuropathic pain. The reduction of paw withdrawal latency after an infrared thermal stimulus (post-SNL) was measured following the induction period for comparison with pre-surgery baseline levels (BL). Following drug administration, thermal hyperalgesia was measured at various time points.
as §1, with “tactile thresholds” for “paw withdrawal latency after an infrared thermal stimulus”, “tactile allodynia” for “thermal hyperalgesia”, “points with calibrated von-Frey filaments.” for “points.”
The experimental designs for the Chung Spinal Nerve Ligation SNL Model assay for neuropathic pain are depicted in FIGS. 1 and 2. Nerve ligation injury was performed according to the method described by Kim and Chung (Kim and Chung, Pain 50:355-363, 1992). This technique produces signs of neuropathic dysesthesias, including tactile allodynia, thermal hyperalgesia, and guarding of the affected paw. Rats were anesthetized with halothane, and the vertebrae over the L4 to S2 region were exposed. […]

[3] = tested on: dural inflammation model of migraine; experiment: Dural inflammation rat model of migraine; type: in vivo; settings: rats, 3 mg/kg p.o., about 15 min pre-IS, measured up to 6 hours post IS
Description: These features mimic the characteristic often seen in migraineurs during a headache, especially when treatment is delayed, and the development of central sensitization has occurred (Burstein et al., Ann. Neurol. 47:614-624, 2000; Burstein et al., Brain, 123:1703-1709, 2000). Compound (8) was tested in a dural inflammation model of migraine according to previously described procedures (WO 2007/120830 or as described in US-2008-0031822-A1). Baseline paw withdrawal thresholds were recorded approximately 30 min before the IS administration by application of calibrated von Frey filaments to the hindpaws to measure tactile allodynia. Approximately 15 minutes pre-IS administration, the test compound in water was administered by oral gavage (1 mL/kg) at a dose of 3 mg/kg per os (p.o.). Measurements of tactile allodynia were recorded at 1 hour intervals up to 6 hours post IS administration.

[4] = tested on: Carrageenan model of inflammatory pain; experiment: Carrageenan model of inflammatory pain; type: in vivo, rat; settings: rats
Description: Inflammation was induced by injecting 0.1 mL of a 3% carrageenan suspension s.c. into the supplanter aspect of a hindpaw of lightly anesthetized rats. Typically, pronounced inflammation and edema were obvious within three hours of the injection. The carrageenan model is a model of inflammatory pain with two components: the first occurring immediately after injection provides information on the acute nociceptive response to a painful stimulus (in this case, the chemical carrageenan). There is also a second, neurogenic component that develops several hours later and reflects the type of neuronal activity due to the hyperalgesic and allodynic components as found in neuropathic pain. Considerable evidence has shown that NO and its enzymes are involved in the central mechanisms of inflammatory hyperalgesia at the spinal cord level and that peripheral inflammation can upregulate nNOS expression and induce iNOS expression in the spinal cord (Guhring et al., J. Neurosci. 20:6714-6720, 2000; Wu et al., Exp. Brain Res. 118:457-465, 1998; and Wu et al., Pain 94:47-58, 2001).

CNCCN1CCSc2cc(NC(=N)c3cccs3)ccc21 [Compound 8, N-(4-(2-(methylamino)ethyl)-3,4-dihydro-2H-benzo[b][1,4]thiazin-7-yl)thiophene-2-carboximidamide]
Selectivity eNOS/nNOS ([1]; ratio of human eNOS IC50 to human nNOS IC50): 531 | IC50 ([1]; recombinant human nNOS): 60 nM | reversal of tactile allodynia ([2]; i.p. 30 mg/kg, von Frey filaments): reversal of tactile allodynia | reversal of thermal hyperalgesia ([2]; i.p., text: e.g. 3 mg/kg, FIG. 3 legend: 30 mg/kg): clear effect | antiallodynic effect (tactile allodynia, hindpaw) [3]: antiallodynic effect | reversal of mechanical allodynia ([4]; ipsilateral paw, 60, 100, or 200 mg/kg p.o. (FIG. 6)): reversal of mechanical allodynia | reversal of thermal hyperalgesia (late phase), paw withdrawal latency ([4]; ipsilateral paw, text: i.p. dosing, FIG. 7 legend: 60, 100, or 200 mg/kg p.o.): reversal of thermal hyperalgesia
